Experiment: gradient 5% acetonitrile 3 min, to 50% in 2 min, to 85% in 15 min, held 3 min, 100 µL/min
Conditions: column: Zorbax Extend-C18 2.1 x 50 mm; eluents: water / acetonitrile, 0.1% formic acid
Method in brief: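 The system's dead and dwell volumes were 40 μL and 900 μL, with a Zorbax Extend-C18 column (2.1 × 50 mm, 1.8 μm) run at 100 μL/min in water and acetonitrile containing 0.1% formic acid each. Pure standards were analyzed in mixtures of ~100 molecules by HPLC–quadrupole time-of-flight mass spectrometry in positive and negative ionization mode. Retention time was assigned from computationally picked, manually inspected adduct peaks.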

| SMILES | RP-LC retention time [s] |
| --- | --- |
| O=C(c1csc(Nc2ccc(OC(F)F)cc2)n1)N1CCN(c2ncccn2)CC1 | 774 |
| Cc1ccc(C2CCCN2C(=O)Cc2ccsc2)cc1 (configuration not stated) | 632 |
| CCNC(=O)N1CCCC(c2cccc(C(=O)NCCC3=CCCCC3)c2)C1 (configuration not stated) | 906 |
| CCc1nnc(-c2cc(NS(C)(=O)=O)c(C)s2)o1 | 747 |
| Fc1ccc(-c2nc(-c3cn(-c4ccccc4)nn3)no2)cc1 | 607 |
| O=S(=O)(c1cccc(F)c1)N1CC(c2nc(CCOCC3CC3)no2)C1 | 907 |
| COc1ccccc1C1=NS(=O)(=O)c2cc(S(=O)(=O)N3CCOCC3)ccc2N1 | 718 |
| CCCn1ncc(N2CCC(C(=O)Nc3ccc(OC)c(OC)c3)CC2)cc1=O | 693 |
| O=C(NCc1ccncc1)C1CCCN(c2nc3ccsc3c(=O)n2Cc2ccc(F)cc2)C1 (configuration not stated) | 630 |
| O=C(Cn1c(=O)c(CCC(=O)NC2CC2)nc2ccccc21)Nc1cccc(Br)c1 | 781 |
| O=S(=O)(c1ccc(-c2noc(-c3ccccc3F)n2)cc1)N1CCCC1 | 1100 |
| O=C(NC1(c2nc(-c3ccccc3)no2)CCCCC1)c1cccc(F)c1 | 1180 |
| O=C1NCCCCCN(C(=O)c2ccoc2)[C@@H]2C[C@@H](C(=O)N3CCc4ccccc4C3)C[C@H]12 | 753 |
| COc1cc(-c2oc3cc(O)ccc3c(=O)c2O)ccc1O | 687 |
| O=C(Cc1cccc(F)c1)N1CC(N2CC(C(=O)N3CCCC3)CC2=O)C1 (configuration not stated) | 648 |
| Cc1ccc(CNC(=O)C2(C)CCCN(C(=O)Nc3cc(Cl)ccc3C)C2)cc1 (configuration not stated) | 1080 |
| COc1ccc(C(=O)N2CCc3ccc(C(=O)Nc4ccc5c(c4)OCO5)cc32)cc1 | 773 |
| Cc1cc2c(=O)n(CC(=O)Nc3ccc(C)c(Cl)c3)ccc2s1 | 896 |
| COCCCNC(=O)CN1CC2=C(C1=O)C(c1ccccc1Cl)NC(=O)N2C (configuration not stated) | 570 |
| CCc1ccc(S(=O)(=O)NCC2CCN(C(=O)Nc3ccccc3OC)CC2)s1 | 878 |
| Cc1cc2c(c(=O)n(-c3ccccc3)c(=O)n2CC(=O)Nc2ccccc2C(F)(F)F)n1C | 904 |
| COc1cccc(CNC(=O)Cn2ccc3ccc(N4CCOCC4)nc32)c1 | 858 |
| CCOc1cccc(-c2noc(CN3C(=O)COc4ccccc43)n2)c1 | 1050 |

| SMILES | RP-LC retention time [s] |
| --- | --- |
| Cc1noc(C)c1S(=O)(=O)N1CCC(c2nc(CCOCc3ccccc3)no2)C1 (configuration not stated) | 984 |
| CC1(C(=O)NCc2ccccc2)CCN(S(=O)(=O)c2ccccc2C(F)(F)F)CC1 | 970 |
| Cc1cc(C2CCCN2C(=O)Cc2ccc(F)cc2Cl)no1 (configuration not stated) | 851 |
| COCCCNC(=O)C1c2ccccc2C(=O)N1Cc1cccc(Br)c1 (configuration not stated) | 750 |
| Cc1ccc(Nc2c(-c3ccc(N4CCOCC4)cc3)nc3ncccn23)cc1C | 716 |
| Cc1ccc(CNC(=O)Cn2nc(C)c3nn(-c4ccccc4)c(C)c3c2=O)o1 | 816 |
| Cc1ccccc1NC(=O)N(C)Cc1ccsc1 | 866 |
| Brc1ccc(-c2csc(Cc3nc(-c4ccc5c(c4)OCO5)no3)n2)cc1 | 1300 |
| CCOC(=O)C1=C(CN2CC(C)CC(C)C2)NC(=O)NC1c1ccc(Cl)cc1 (configuration not stated) | 688 |
| CCc1cccc(NC(=O)c2csc(-c3cn(C)c4ncccc34)n2)c1 | 1120 |
| CCCCNC(=O)C1CCCN(C(=O)Nc2ccc(NC(=O)NC3CCCC3)cc2)C1 (configuration not stated) | 728 |
| O=C(O)c1ccccc1SC1CC(=O)N(c2ccccc2OC(F)F)C1=O (configuration not stated) | 741 |
| COc1ccc(C2C(C(=O)N3CCCCC3)=C(C)NC3=C2C(=O)CC(C)(C)C3)cc1OC (configuration not stated) | 675 |
| O=C(c1ccc(OCC2CCCN(C(=O)c3ccoc3)C2)cc1)N1CCOCC1 (configuration not stated) | 690 |
| CC1CCN(CCCNC(=O)c2nnc(-c3ccc(S(=O)(=O)N4CCOCC4)cc3)o2)CC1 | 608 |
| CCn1cc(-c2ccc(F)cc2)cc1C(=O)N1CCCCC1 | 1060 |
| Cc1cc(Cl)ccc1S(=O)(=O)N1CCN(c2nc3ccncc3n(C)c2=O)CC1 | 615 |
| CC(=O)c1ccc(NC(=O)COc2cc(C)nc(-c3ccc(F)cc3)n2)cc1 | 938 |
| C=CCNC(=O)NC1CCN(C2=NS(=O)(=O)C(c3ccccc3)=C2C)CC1 | 705 |
| COc1ccc(-c2nn3c(N4CCN(c5ccccn5)CC4)cc(C)nc3c2C)cc1OC | 606 |
| CC(C)(C)OC(=O)COc1cc(O)c2c(=O)cc(-c3ccccc3)oc2c1 | 1210 |
| CCN1C=C(C(=O)OCc2ccc(C)cc2)C(C)=NS1(=O)=O | 1030 |
| COc1ccc(CNS(=O)(=O)c2ccc3c(c2)CCCC(=O)N3)cc1 | 699 |

Continued, values first:

| RP-LC retention time [s] | SMILES |
| --- | --- |
| 856 | COc1cccc(CCC(=O)NC2(c3nc(C)no3)CCCCC2)c1 |
| 823 | CC(C)c1noc(-c2ccn3c(CC(=O)NC4CCCCCC4)nnc3c2)n1 |
| 691 | Cc1cc2n(n1)CCC(=O)N2CCCC(=O)NCCCc1ccccc1 |
| 750 | Cc1cc(NC(=O)CSc2ccc(NC(=O)c3cccc(F)c3)nn2)no1 |
| 584 | COc1ccc(NC(=O)NC2CCN(c3cc(N4CCCC4)cnn3)C2)cc1Cl (configuration not stated) |
| 918 | Cc1ccc(-c2csc(Nc3ccccn3)n2)cc1 |
| 1110 | CCCN1C(=O)COc2ccc(-c3noc(CCc4c[nH]c5ccccc45)n3)cc21 |
| 765 | Cc1ccc2ncn(C3CCN(C(=O)Nc4ccc(F)cc4)CC3)c(=O)c2c1 |
| 942 | COc1cn(-c2ccc(F)cc2)nc1C(=O)NCCC1=CCCCC1 |
| 898 | COc1ccccc1CNc1ncc(C(=O)O)c(C(C)C)n1 |
| 1180 | O=C(Cn1nc(N2CCCCCC2)c2ccccc2c1=O)Nc1cccc(Cl)c1 |
| 1200 | O=S(=O)(c1cc(-c2noc(C3CCCC3)n2)cs1)N1CCOCC1 |
| 757 | COc1ccc(NC(=O)Cn2c(N3CCc4ccccc4C3)nc(C)cc2=O)cc1 |
| 584 | Clc1cc2c(c(CN3CCN(c4ccccc4)CC3)c1)OCOC2 |
| 904 | CC(C)c1ccc(OCC(=O)Nc2nnc(C3CC(=O)N(c4ccc(F)cc4)C3)o2)cc1 (configuration not stated) |
| 715 | Cn1c(N2CCCC(C(=O)NC3CCCCCC3)C2)cc(=O)n(C)c1=O (configuration not stated) |
| 722 | COc1ccc(CCN2CN=C(Nc3nc(C)c4cc(C)ccc4n3)NC2)cc1OC |
| 552 | Cc1cc(C)nc(Nc2nc(C)c3cc4c(cc3n2)OCO4)n1 |
| 890 | CCOc1ccc(NC(=O)N(C)CCc2noc(COc3ccccc3)n2)cc1 |
| 954 | O=C(Nc1cccc(OCc2nnc(-c3ccccc3)o2)c1)c1ccccn1 |
| 646 | Cc1ccc(NC(=O)CCc2ccc3nc[nH]c3c2)cc1Cl |

Reference: the METLIN SMRT retention time set (Domingo-Almenara et al. 2019)
